# Experimental data reported in patent US6358885B1, “Substituted phenylheterocyclic herbicides” (Mississippi State University, priority 1992, dated 2002).
# How the values were obtained:
# blackgrass = assay: Test B preemergence/postemergence greenhouse plant response rating 0 to 10; assay type: in vivo, Alopecurus myosuroides; settings: 0 to 10 scale
# How it was run: (§1)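 Planted seeds are treated preemergence with compound dissolved in a non-phytotoxic solvent, while postemergence applications go onto plants of two to eighteen cm. Plants stay in the greenhouse twelve to sixteen days and are then rated visually relative to controls.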
# corn = assay: as above; assay type: in vivo, Zea mays; settings: 0 to 10 scale
# How it was run: as §1
# cotton [1] = assay: as above; assay type: in vivo, Gossypium hirsutum; settings: 0 to 10 scale
# How it was run: as §1
# crabgrass = assay: as above; assay type: in vivo, Digitaria spp.; settings: 0 to 10 scale
# How it was run: as §1
# rice = assay: as above; assay type: in vivo, Oryza sativa; settings: 0 to 10 scale
# How it was run: as §1
# sorghum = assay: as above; assay type: in vivo, Sorghum bicolor; settings: 0 to 10 scale
# How it was run: as §1
# sugar beet = assay: as above; assay type: in vivo, Beta vulgaris; settings: 0 to 10 scale
# How it was run: as §1
# wheat [2] = assay: as above; assay type: in vivo, Triticum aestivum; settings: 0 to 10 scale
# How it was run: as §1
# wild oat = assay: as above; assay type: in vivo, Avena fatua; settings: 0 to 10 scale
# How it was run: as §1
# purple nutsedge = assay: as above; assay type: in vivo, Cyperus rotundus; settings: 0 to 10 scale
# How it was run: as §1
# cotton [3] = assay: Test C preemergence/postemergence greenhouse plant response rating 0 to 100; assay type: in vivo, Gossypium hirsutum; settings: POSTEMERGENCE; for Plant response rating, Cotton: 0 to 100 scale
# How it was run: (§2)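 Compounds in non-phytotoxic solvent applied preemergence to sandy loam one day after planting, postemergence at the 1–4 leaf stage, or to ~2.5 cm floodwater over silt loam.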
# lambsquarters = assay: as above; assay type: in vivo, Chenopodium album; settings: POSTEMERGENCE; for Plant response rating Lambsquarters: 0 to 100 scale
# How it was run: as §2
# pigweed = assay: as above; assay type: in vivo, Amaranthusretroflexus; settings: POSTEMERGENCE; for Plant response rating Pigweed: 0 to 100 scale
# How it was run: as §2
# velvetleaf = assay: as above; assay type: in vivo, Abutilon theophrasti; settings: POSTEMERGENCE; for Plant response rating, Velvetleaf: 0 to 100 scale
# How it was run: as §2
# wheat [4] = assay: as above; assay type: in vivo, Triticum aestivum; settings: POSTEMERGENCE; for Plant response rating, Wheat: 0 to 100 scale
# How it was run: as §2
# wild buckwheat = assay: as above; assay type: in vivo, Polygonum convolvulus; settings: POSTEMERGENCE; for Plant response rating, Wild buckwheat: 0 to 100 scale
# How it was run: as §2
# duck salad = assay: Test C flood test plant response rating 0 to 100; assay type: in vivo, Heteranthera limosa; settings: for Plant response rating (0 to 100), Duck salad: under POSTEMERGENCE head (flood test species); for Plant response rating Duck salad: flood test species listed under POSTEMERGENCE, 0 to 100 scale
# How it was run: as §2
# barnyardgrass = assay: Test C flood test plant response rating 0 to 100; assay type: in vivo, Echinochloa crus-galli; settings: for Plant response rating (0 to 100), Barnyardgrass 2: under POSTEMERGENCE head (flood test species); for Plant response rating Barnyardgrass 2: flood test species listed under POSTEMERGENCE, 0 to 100 scale
# How it was run: as §2
smiles,measurement,setting,value
CCOC(=O)COc1cc(-c2nn3c(c2Cl)CCCC3)c(F)cc1Cl [Compound 42],"Plant response rating, Blackgrass","blackgrass; POSTEMERGENCE, Rate 50 g/ha",2
same,"Plant response rating, Blackgrass","blackgrass; POSTEMERGENCE, Rate 200 g/ha",3
same,"Plant response rating, Blackgrass","blackgrass; PREEMERGENCE, Rate 50 g/ha",0
same,"Plant response rating, Blackgrass","blackgrass; Rate 200 g/ha, PREEMERGENCE",0
same,"Plant response rating, Corn","corn; POSTEMERGENCE, Rate 50 g/ha",7
same,"Plant response rating, Corn","corn; POSTEMERGENCE, Rate 200 g/ha",9
same,"Plant response rating, Corn","corn; PREEMERGENCE, Rate 50 g/ha",0
same,"Plant response rating, Corn","corn; Rate 200 g/ha, PREEMERGENCE",0
same,"Plant response rating, Cotton","cotton [1]; POSTEMERGENCE, Rate 50 g/ha",10
same,"Plant response rating, Cotton","cotton [1]; POSTEMERGENCE, Rate 200 g/ha",10
same,"Plant response rating, Cotton","cotton [1]; PREEMERGENCE, Rate 50 g/ha",0
same,"Plant response rating, Cotton","cotton [1]; Rate 200 g/ha, PREEMERGENCE",0
same,"Plant response rating, Crabgrass","crabgrass; POSTEMERGENCE, Rate 50 g/ha",2
same,"Plant response rating, Crabgrass","crabgrass; POSTEMERGENCE, Rate 200 g/ha",3
same,"Plant response rating, Crabgrass","crabgrass; PREEMERGENCE, Rate 50 g/ha",0
same,"Plant response rating, Crabgrass","crabgrass; Rate 200 g/ha, PREEMERGENCE",0
same,"Plant response rating, Rice","rice; POSTEMERGENCE, Rate 50 g/ha",4
same,"Plant response rating, Rice","rice; PREEMERGENCE, Rate 50 g/ha",0
same,"Plant response rating, Rice","rice; Rate 200 g/ha, POSTEMERGENCE",6
same,"Plant response rating, Rice","rice; Rate 200 g/ha, PREEMERGENCE",2
same,"Plant response rating, Sorghum","sorghum; POSTEMERGENCE, Rate 50 g/ha",4
same,"Plant response rating, Sorghum","sorghum; PREEMERGENCE, Rate 50 g/ha",0
same,"Plant response rating, Sorghum","sorghum; Rate 200 g/ha, POSTEMERGENCE",5
same,"Plant response rating, Sorghum","sorghum; Rate 200 g/ha, PREEMERGENCE",0
same,"Plant response rating, Sugar beet","sugar beet; POSTEMERGENCE, Rate 50 g/ha",10
same,"Plant response rating, Sugar beet","sugar beet; PREEMERGENCE, Rate 50 g/ha",10
same,"Plant response rating, Sugar beet","sugar beet; Rate 200 g/ha, POSTEMERGENCE",10
same,"Plant response rating, Sugar beet","sugar beet; Rate 200 g/ha, PREEMERGENCE",10
same,"Plant response rating, Wheat","wheat [2]; POSTEMERGENCE, Rate 50 g/ha",2
same,"Plant response rating, Wheat","wheat [2]; PREEMERGENCE, Rate 50 g/ha",0
same,"Plant response rating, Wheat","wheat [2]; Rate 200 g/ha, POSTEMERGENCE",5
same,"Plant response rating, Wheat","wheat [2]; Rate 200 g/ha, PREEMERGENCE",0
same,"Plant response rating, Wild oat","wild oat; POSTEMERGENCE, Rate 50 g/ha",1
same,"Plant response rating, Wild oat","wild oat; PREEMERGENCE, Rate 50 g/ha",0
same,"Plant response rating, Wild oat","wild oat; Rate 200 g/ha, POSTEMERGENCE",3
same,"Plant response rating, Nutsedge","purple nutsedge; POSTEMERGENCE, Rate 50 g/ha",2
same,"Plant response rating, Nutsedge","purple nutsedge; PREEMERGENCE, Rate 50 g/ha",0
same,"Plant response rating, Nutsedge","purple nutsedge; Rate 200 g/ha, POSTEMERGENCE",5
same,"Plant response rating, Nutsedge","purple nutsedge; Rate 200 g/ha, PREEMERGENCE",0
same,"Plant response rating, Cotton",cotton [3]; 62 g/ha,100
same,"Plant response rating, Cotton",cotton [3]; 125 g/ha,100
same,"Plant response rating (0 to 100), Cotton",cotton [3]; Rate 16 g/ha,100
same,"Plant response rating (0 to 100), Cotton",cotton [3]; Rate 31 g/ha,100
same,Plant response rating Lambsquarters,lambsquarters; 62 g/ha,100
same,Plant response rating Lambsquarters,lambsquarters; 125 g/ha,100
same,"Plant response rating (0 to 100), Lambsquarters",lambsquarters; Rate 16 g/ha,100
same,"Plant response rating (0 to 100), Lambsquarters",lambsquarters; Rate 31 g/ha,100
same,Plant response rating Pigweed,pigweed; 62 g/ha,90
same,Plant response rating Pigweed,pigweed; 125 g/ha,90
same,"Plant response rating (0 to 100), Pigweed",pigweed; Rate 16 g/ha,90
same,"Plant response rating (0 to 100), Pigweed",pigweed; Rate 31 g/ha,90
same,"Plant response rating, Velvetleaf",velvetleaf; 62 g/ha,100
same,"Plant response rating, Velvetleaf",velvetleaf; 125 g/ha,100
same,"Plant response rating (0 to 100), Velvetleaf",velvetleaf; Rate 16 g/ha,100
same,"Plant response rating (0 to 100), Velvetleaf",velvetleaf; Rate 31 g/ha,100
same,"Plant response rating, Wheat",wheat [4]; 62 g/ha,30
same,"Plant response rating, Wheat",wheat [4]; 125 g/ha,40
same,"Plant response rating (0 to 100), Wheat",wheat [4]; Rate 16 g/ha,10
same,"Plant response rating (0 to 100), Wheat",wheat [4]; Rate 31 g/ha,20
same,"Plant response rating, Wild buckwheat",wild buckwheat; 62 g/ha,100
same,"Plant response rating, Wild buckwheat",wild buckwheat; 125 g/ha,100
same,"Plant response rating (0 to 100), Wild buckwheat",wild buckwheat; Rate 16 g/ha,60
same,"Plant response rating (0 to 100), Wild buckwheat",wild buckwheat; Rate 31 g/ha,70
same,"Plant response rating (0 to 100), Duck salad",duck salad; Rate 16 g/ha,0
same,"Plant response rating (0 to 100), Duck salad",duck salad; Rate 31 g/ha,0
same,Plant response rating Duck salad,duck salad; 62 g/ha,0
same,Plant response rating Duck salad,duck salad; 125 g/ha,20
same,"Plant response rating (0 to 100), Barnyardgrass 2",barnyardgrass; Rate 16 g/ha,0
same,"Plant response rating (0 to 100), Barnyardgrass 2",barnyardgrass; Rate 31 g/ha,20
same,Plant response rating Barnyardgrass 2,barnyardgrass; 62 g/ha,40
same,Plant response rating Barnyardgrass 2,barnyardgrass; 125 g/ha,60
